Results as given in PMC12079163 (Drug Development Research, 2025).
“Also recorded” adds a separate entry of the source.

What was measured:
[1] = target: T1, HDAC6 (Homo sapiens, UniProt Q9UBN7); conditions: ref Zhou et al. [2019]; cited from earlier work
T1 sequence (Q9UBN7 1-1215): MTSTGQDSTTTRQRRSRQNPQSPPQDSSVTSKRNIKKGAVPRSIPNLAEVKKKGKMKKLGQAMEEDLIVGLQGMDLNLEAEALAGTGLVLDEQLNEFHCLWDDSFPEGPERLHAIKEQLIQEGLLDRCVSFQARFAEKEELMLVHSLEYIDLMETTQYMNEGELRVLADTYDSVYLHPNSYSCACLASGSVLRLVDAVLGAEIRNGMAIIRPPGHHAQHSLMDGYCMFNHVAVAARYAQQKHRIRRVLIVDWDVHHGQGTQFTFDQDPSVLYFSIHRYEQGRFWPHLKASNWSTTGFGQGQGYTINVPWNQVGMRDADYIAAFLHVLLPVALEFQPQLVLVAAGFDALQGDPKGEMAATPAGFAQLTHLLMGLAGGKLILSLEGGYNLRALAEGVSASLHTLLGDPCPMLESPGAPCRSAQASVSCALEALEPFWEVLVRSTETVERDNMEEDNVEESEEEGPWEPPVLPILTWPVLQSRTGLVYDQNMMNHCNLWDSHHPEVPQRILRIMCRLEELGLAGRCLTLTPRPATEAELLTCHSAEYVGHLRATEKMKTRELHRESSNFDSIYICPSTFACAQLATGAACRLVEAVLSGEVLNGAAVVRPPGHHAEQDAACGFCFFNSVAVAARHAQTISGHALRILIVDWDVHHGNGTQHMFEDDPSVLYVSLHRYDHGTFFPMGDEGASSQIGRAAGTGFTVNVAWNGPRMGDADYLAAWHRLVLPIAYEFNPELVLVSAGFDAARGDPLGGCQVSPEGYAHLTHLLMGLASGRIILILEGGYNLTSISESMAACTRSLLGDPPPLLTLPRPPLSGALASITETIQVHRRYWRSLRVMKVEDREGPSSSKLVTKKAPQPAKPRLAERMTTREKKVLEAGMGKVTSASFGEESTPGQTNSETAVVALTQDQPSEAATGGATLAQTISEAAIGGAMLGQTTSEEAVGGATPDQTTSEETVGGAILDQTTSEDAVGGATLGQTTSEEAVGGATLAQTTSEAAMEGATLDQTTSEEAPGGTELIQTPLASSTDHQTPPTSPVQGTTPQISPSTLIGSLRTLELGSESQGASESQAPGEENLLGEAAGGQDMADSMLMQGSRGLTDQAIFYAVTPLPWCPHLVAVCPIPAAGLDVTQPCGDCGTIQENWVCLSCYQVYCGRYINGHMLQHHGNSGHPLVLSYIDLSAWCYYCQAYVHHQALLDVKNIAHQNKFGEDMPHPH

[2] = Solubility under the assay conditions; assay type: physicochemical; conditions: HDAC, BCL‐2 and cell assays; data not reliable, not reported

Structure (SMILES)	selectivity for HDAC6 over HDAC1 [1]	solubility under the assay conditions [2]
O=C(CCCCCCC(=O)Nc1ccccc1)NO [SAHA]	about threefold	
CC1(C)CCC(CN2CCN(c3ccc(C(=O)NS(=O)(=O)c4ccc(NCc5ccc(C(=O)Nc6ccc(-c7cccs7)cc6N)cc5)c([N+](=O)[O-])c4)c(Oc4cnc5[nH]ccc5c4)c3)CC2)=C(c2ccc(Cl)cc2)C1 [AMC‐4‐074, 2‐((1H‐pyrrolo[2,3‐b]pyridin‐5‐yl)oxy)‐N‐((4‐((4‐((2‐amino‐4‐(thiophen‐2‐yl)phenyl)carbamoyl)benzyl)amino)‐3‐nitrophenyl)sulfonyl)‐4‐(4‐((4′‐chloro‐5,5‐dimethyl‐3,4,5,6‐tetrahydro‐[1,1′‐biphenyl]‐2‐yl)methyl)piperazin‐1‐yl)benzamide]		solubility proved problematic; also recorded: Limited solubility
